Source: ChEMBL document CHEMBL4393680, “Design, synthesis and biological evaluation of novel thioquinazolinone-based 2-aminobenzamide derivatives as potent histone deacetylase (HDAC) inhibitors” (Eur J Med Chem, 2019)
pIC50: −log10 of the molar value.

How the values were obtained:
A-375 [1] = assay: Antiproliferative activity against human A375 cells assessed as reduction in cell growth at 2 uM incubated for 72 hrs by CCK-8 assay relative to control; type: functional; settings: A-375, 72 h
SMMC-7721 [2] = assay: Antiproliferative activity against human SMMC7721 cells assessed as reduction in cell growth at 8 uM incubated for 72 hrs by CCK-8 assay relative to control; type: functional; settings: SMMC-7721, 72 h
HCT-116 [3] = assay: Antiproliferative activity against human HCT116 cells assessed as reduction in cell growth at 2 uM incubated for 72 hrs by CCK-8 assay relative to control; type: functional; settings: HCT-116, 72 h
SMMC-7721 [4] = assay: Antiproliferative activity against human SMMC7721 cells assessed as reduction in cell growth incubated for 72 hrs by CCK-8 assay; type: functional, cell-based; settings: SMMC-7721, 72 h
A-375 [5] = assay: Antiproliferative activity against human A375 cells assessed as reduction in cell growth at 8 uM incubated for 72 hrs by CCK-8 assay relative to control; type: functional; settings: A-375, 72 h
SMMC-7721 [6] = assay: Antiproliferative activity against human SMMC7721 cells assessed as reduction in cell growth at 2 uM incubated for 72 hrs by CCK-8 assay relative to control; type: functional; settings: SMMC-7721, 72 h
A549 [7] = assay: Antiproliferative activity against human A549 cells assessed as reduction in cell growth at 8 uM incubated for 72 hrs by CCK-8 assay relative to control; type: functional; settings: A549, 72 h
HeLa [8] = assay: Antiproliferative activity against human HeLa cells assessed as reduction in cell growth at 2 uM incubated for 72 hrs by CCK-8 assay relative to control; type: functional
A-375 [9] = assay: Antiproliferative activity against human A375 cells assessed as reduction in cell growth incubated for 72 hrs by CCK-8 assay; type: functional, cell-based; settings: A-375, 72 h
HCT-116 [10] = assay: Antiproliferative activity against human HCT116 cells assessed as reduction in cell growth incubated for 72 hrs by CCK-8 assay; type: functional, cell-based; settings: HCT-116, 72 h
HCT-116 [11] = assay: Antiproliferative activity against human HCT116 cells assessed as reduction in cell growth at 8 uM incubated for 72 hrs by CCK-8 assay relative to control; type: functional; settings: HCT-116, 72 h
HeLa [12] = assay: Antiproliferative activity against human HeLa cells assessed as reduction in cell growth at 8 uM incubated for 72 hrs by CCK-8 assay relative to control; type: functional
A549 [13] = assay: Antiproliferative activity against human A549 cells assessed as reduction in cell growth at 2 uM incubated for 72 hrs by CCK-8 assay relative to control; type: functional; settings: A549, 72 h
HeLa [14] = assay: Antiproliferative activity against human HeLa cells assessed as reduction in cell growth incubated for 72 hrs by CCK-8 assay; type: functional, cell-based
A549 [15] = assay: Antiproliferative activity against human A549 cells assessed as reduction in cell growth incubated for 72 hrs by CCK-8 assay; type: functional, cell-based; settings: A549, 72 h

SMILES	inhibition at 2 µM (A-375 [1]) [%]	inhibition at 8 µM (SMMC-7721 [2]) [%]	inhibition at 2 µM (HCT-116 [3]) [%]	pIC50 (SMMC-7721 [4])	inhibition at 8 µM (A-375 [5]) [%]	inhibition at 2 µM (SMMC-7721 [6]) [%]	inhibition at 8 µM (A549 [7]) [%]	inhibition at 2 µM (HeLa [8]) [%]	pIC50 (A-375 [9])	pIC50 (HCT-116 [10])	inhibition at 8 µM (HCT-116 [11]) [%]	inhibition at 8 µM (HeLa [12]) [%]	inhibition at 2 µM (A549 [13]) [%]	pIC50 (HeLa [14])	pIC50 (A549 [15])
COc1ccc2c(=O)n(-c3ccccc3C)c(SCc3ccc(C(=O)Nc4ccccc4N)cc3)nc2c1	39.1	78.1	73.5	5.27	83.6	58.2	54.5	23.6	5.64	5.89	88.2	33.1	36.3		
Cn1c(SCc2ccc(C(=O)Nc3ccccc3N)cc2)nc2cc(F)ccc2c1=O	30	75.1	51.7	6.05	64.3	52.5	45	39.7	5.48	5.57	79.7	84.6	21.3	5.32	
Cc1ccc2c(=O)n(C)c(SCc3ccc(C(=O)Nc4ccccc4N)cc3)nc2c1	52.9	78.9	59.8	5.44	88.2	41.7	52.7	59.8	5.92	5.61	74.9	84.3	23.3	5.51	
COc1ccc2c(=O)n(CCCC[S+](C)[O-])c(SCc3ccc(/C=C/C(=O)Nc4ccccc4N)cc3)nc2c1 (configuration not stated)	13.2	9.9	4.5		18.8	3.1	62.7	1.1			8.6	41	53.8		4.70
Cn1c(SCc2ccc(/C=C/C(=O)Nc3ccccc3N)cc2)nc2cc(Cl)ccc2c1=O	2.4	20.9	2.1		10.2	7.8	68.8	29.3			21.5	38.8	15.5		4.78
COc1ccc2c(=O)n(CC/C=C/[S+](C)[O-])c(SCc3ccc(C(=O)Nc4ccccc4N)cc3)nc2c1 (configuration not stated)	34.4	57.2	59		67.2	6.9	56.3	35.8	5.55	5.80	88	74.1	36.9	5.57	5.18
